From ChEMBL document CHEMBL1201862, “PubChem BioAssay data set” (2004)
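These data come from cells grown in 96-well plates and exposed to compound for 48 hours at five concentrations. GI50 marks 50% less growth.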 The source made the active and inactive calls. No stated cut-off is given here; in the data, active = GI50 up to about 1.1 µM and inactive = higher.

Experiments:
Experiment in all cases: DTP human tumour cell line panel, 48 h
SK-OV-3 = system: SK-OV-3
DLD-1 = system: DLD-1
SR = system: SR
SF-295 = system: SF-295
SF-268 = system: SF-268
NCI-H522 = system: NCI-H522
HOP-62 = system: HOP-62
UACC-257 = system: UACC-257
MCF7 = system: MCF7
NCI-H460 = system: NCI-H460
MOLT-4 = system: MOLT-4
786-0 = system: 786-0
Malme-3M = system: Malme-3M
SK-MEL-28 = system: SK-MEL-28
SF-539 = system: SF-539
NCI-H226 = system: NCI-H226
HOP-18 = system: HOP-18

Compound | GI50 (SK-OV-3) | GI50 (DLD-1) | GI50 (SR) | GI50 (SF-295) | GI50 (SF-268) | GI50 (NCI-H522) | GI50 (HOP-62) | GI50 (UACC-257) | GI50 (MCF7) | GI50 (NCI-H460) | GI50 (MOLT-4) | GI50 (786-0) | GI50 (Malme-3M) | GI50 (SK-MEL-28) | GI50 (SF-539) | GI50 (NCI-H226) | GI50 (HOP-18)
C=C1CC2CC[C@@]34C[C@@H]5O[C@@H]6C(O[C@H]7CC[C@H](CC(=O)OC8[C@@H](C)C9OC%10C[C@]%11(C[C@@H]%12O[C@@]%13(C[C@@H](C)[C@@H]%12O%11)C[C@H](C)[C@@H]%11OC%12CC(C(O)CO)OC%12C[C@@H]%11O%13)OC%10CC9O[C@H]8C[C@H]8O[C@@H](CC[C@@H]1O2)C[C@@H](C)C8=C)O[C@@H]7[C@@H]6O3)C5O4 (stereo not given in full) | 0.00166 µM (active) | 0.00267 µM (active) | 0.000718 µM (active) | 0.000453 µM (active) | 0.00229 µM (active) | 0.000213 µM (active) | 0.00141 µM (active) | 0.000262 µM (active) | 0.000148 µM (active) | 8.26e-05 µM (active) | 0.00135 µM (active) | 0.00211 µM (active) | 0.000904 µM (active) | 0.0014 µM (active) | 0.000933 µM (active) | 0.00179 µM (active) | 
O=C1c2ccccc2C(=O)c2c(O)ccc(O)c21 [QUINIZARIN] | > 100 µM (inactive) | 61.9 µM (inactive) |  | > 100 µM (inactive) | > 100 µM (inactive) | > 100 µM (inactive) | > 100 µM (inactive) | > 100 µM (inactive) |  | 40.8 µM (inactive) | 52 µM (inactive) | > 100 µM (inactive) | > 100 µM (inactive) | > 100 µM (inactive) | > 100 µM (inactive) |  | 
C=CC1=CSNN1 | > 100 µM (inactive) | > 100 µM (inactive) |  | > 100 µM (inactive) | > 100 µM (inactive) | > 100 µM (inactive) | > 100 µM (inactive) | > 100 µM (inactive) |  | > 100 µM (inactive) | > 100 µM (inactive) | > 100 µM (inactive) | > 100 µM (inactive) | > 100 µM (inactive) | > 100 µM (inactive) |  | > 100 µM (inactive)
C[C@]12Cc3conc3C(O)=C1CC[C@@H]1C2CC[C@@]2(C)C1CC[C@]2(C)O (stereo not given in full) | 24.3 µM (inactive) | 16.5 µM (inactive) |  | 19.1 µM (inactive) | 28.8 µM (inactive) |  | 22.9 µM (inactive) | 22.4 µM (inactive) |  | 13.6 µM (inactive) | 15.2 µM (inactive) | 22.7 µM (inactive) | 18.5 µM (inactive) | 19.9 µM (inactive) | 21.8 µM (inactive) | 14.8 µM (inactive) | 
CN(C)c1cccc(-c2cc(O)c3cc4c(cc3n2)OCO4)c1 | 0.123 µM (active) | 0.206 µM (active) | 0.708 µM (active) | 0.136 µM (active) | 0.327 µM (active) | 0.0505 µM (active) | 0.274 µM (active) | 0.916 µM (active) |  | 0.278 µM (active) | 0.3 µM (active) | 0.262 µM (active) | 0.131 µM (active) | 0.0553 µM (active) | 0.171 µM (active) | 0.315 µM (active) | 
CC1=C(c2ccccc2)C(c2ccccc2)=C(c2ccccc2)C2(c3ccccc3)C(=O)C(C)CN12 (stereo not given) | > 100 µM (inactive) | 61.8 µM (inactive) | 26.4 µM (inactive) | 13.3 µM (inactive) | > 100 µM (inactive) | 15.7 µM (inactive) | > 100 µM (inactive) | 30.5 µM (inactive) |  | 32.7 µM (inactive) | 16.6 µM (inactive) | 30.6 µM (inactive) | > 100 µM (inactive) | > 100 µM (inactive) | 31.5 µM (inactive) | 21 µM (inactive) | 
O=C(N/C(=C/c1cccc([N+](=O)[O-])c1)c1nc2cc(Cl)ccc2[nH]1)c1ccccc1 | 17.3 µM (inactive) |  | 3.61 µM (inactive) | 36.9 µM (inactive) | 11.7 µM (inactive) | 4.07 µM (inactive) | 17.7 µM (inactive) | 43.8 µM (inactive) |  | 10.4 µM (inactive) | 3.83 µM (inactive) | 15.7 µM (inactive) | 12.8 µM (inactive) | 22.6 µM (inactive) | 3.51 µM (inactive) | 24.4 µM (inactive) | 30.9 µM (inactive)
O=C1C[C@@H]2[C@@H](CCC23CCCC3)N1 | > 100 µM (inactive) | > 100 µM (inactive) |  | > 100 µM (inactive) | > 100 µM (inactive) | > 100 µM (inactive) | > 100 µM (inactive) | > 100 µM (inactive) |  | > 100 µM (inactive) | > 100 µM (inactive) | > 100 µM (inactive) | > 100 µM (inactive) | > 100 µM (inactive) | > 100 µM (inactive) | > 100 µM (inactive) | > 100 µM (inactive)
O=C1OC(=O)C2C1C1C(c3ccccc3)=C(c3ccccc3)C2(O)C2C(=O)OC(=O)C12 (stereo not given) | > 100 µM (inactive) | 91 µM (inactive) | 78.5 µM (inactive) | > 100 µM (inactive) | > 100 µM (inactive) | 68.7 µM (inactive) | > 100 µM (inactive) | > 100 µM (inactive) |  | > 100 µM (inactive) | 32.5 µM (inactive) | 92.3 µM (inactive) | > 100 µM (inactive) | 98.4 µM (inactive) |  | > 100 µM (inactive) | 
